From US20250122155A1, “NOVEL INDOLE DERIVATIVE, PHARMACEUTICAL COMPOSITION COMPRISING SAME, AND USE THEREOF” (MITOIMMUNE THERAPEUTICS INC., priority 2021, published 2025) come the findings set out here.

One test has as its system H9C2 cells. Description: Protective effect on heart cells against t-BHP (LDH release). The following applies: H9C2, t-BHP 400 μM, 2 hours, read-out: EC50 (μM), Cell Protection Effect against t-BHP in Heart Cells. Type of test: cell-based. In outline:
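H9C2 cells (1.5×10^4/well, cultured 24 h) were pretreated 15–20 min with compound at 0.01–30 μM final, then exposed 2 h to 400 μM t-BHP. LDH in supernatant was measured colorimetrically at 490 nm after 30 min room-temperature reaction; EC50 derived from protection.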
On the technique in general: LDH leaks from cells whose membrane has failed.

The next test deals with PC-12 cells. Description: Cell death protective effect in adrenal cells against Erastin, glutamate and RSL3 (LDH). The following applies: 24 hours. Type of test: cell-based, rat. As for the experimental part: In order to identify the protective effect on adrenal cells, PC-12 cells were divided into 96-well plates by 1×10^4 and cultured for 18 to 24 hours. The compounds of Examples were diluted to final concentrations of 0.1 and 1.0 μM in Erastin, 0.01 and 0.1 in glutamate, and 0.3 and 3.0 μM in RSL3, treated in each well, and incubated for 15 to 20 minutes. Erastin, glutamate, and RSL3 were treated to have final concentrations of 1 μM, 10 mM, and 0.3 μM, respectively, and cultured for 24 hours. In order to identify the protective effect of each compound, the degree of LDH extracellular secretion was measured using cytotoxicity LDH assay kit [Dojindo; CK12]. Briefly, at the time when the treatment of the cells with Erastin, glutamate, and RSL3 for 24 hours is completed, the supernatants containing the cells are taken by 70 μL and transferred to a new 96-well plate. The assay buffer included in the kit is added in an amount of 70 μL/well (the same amount as the sample) thereto, and then the plate is wrapped with a foil and the reaction is performed at room temperature for 15 minutes. After observing the changed color of the sample, the stop solution was added in an amount of 35 µL/well thereto, and then the 0 inhibition value was calculated by measuring the absorbance value at a wavelength of 490 nm using an iD3 spectrophotometer.

The next test concerns NRK-49F cells. Description: Cell death protective effect in renal fibroblasts against Erastin, glutamate and RSL3 (LDH). The format is cell-based, rat. The following applies: 24 hours. Here is the method:
In order to identify the protective effect on renal fibroblasts, NRK-49F cells were divided into 96-well plates by 1×10^4 and cultured for 18 to 24 hours. The compounds of Examples were diluted to final concentrations of 0.1 and 1 μM, treated in each well, and incubated for 15 to 20 minutes. Erastin, glutamate, and RSL3 were treated to have final concentrations of 3 μM, 75 mM, and 3 μM, respectively, and cultured for 24 hours. In order to identify the protective effect of each compound, the degree of LDH extracellular secretion was measured using cytotoxicity LDH assay kit [Dojindo; CK12]. Briefly, at the time when the treatment of the cells with Erastin, glutamate, and RSL3 for 24 hours is completed, the supernatants containing the cells are taken by 70 μl and transferred to a new 96-well plate. The assay buffer included in the kit is added in an amount of 70 μL/well (the same amount as the sample) thereto, and then the plate is wrapped with a foil and the reaction is performed at room temperature for 15 minutes.

A further test deals with ARPE-19 cells. Description: Cell death protective effect in retinal epithelial cells against Erastin and RSL3 (LDH). The format is cell-based, human. The following applies: 24 hours. As for the experimental part:
In order to identify the protective effect on retinal epithelial cells, ARPE-19 cells were divided into 96-well plates by 1×10^4 and cultured for 18 to 24 hours. The compounds of Examples were diluted to final concentrations of 0.03 and 0.3 μM, treated in each well, and incubated for 20 minutes. Erastin, and RSL3 were treated to have final concentrations of 10 μM, and 0.3 μM, respectively, and cultured for 24 hours. In order to identify the protective effect of each compound, the degree of LDH extracellular secretion was measured using cytotoxicity LDH assay kit [Dojindo; CK12]. Briefly, at the time when the treatment of the cells with Erastin, and RSL3 for 24 hours is completed, the supernatants containing the cells are taken by 70 μL and transferred to a new 96-well plate. The assay buffer included in the kit is added in an amount of 70 μL/well (the same amount as the sample) thereto, and then the plate is wrapped with a foil and the reaction is performed at room temperature for 15 minutes.

In another test the test system is MLE-12 cells. Description: Cell death protective effect in lung epithelial cells against RSL3 (LDH). The format is cell-based, rat. The following applies: MLE-12, RSL3 1.0 μM, 24 hours. Here is the method: In order to identify the protective effect on lung epithelial cells, MLE-12 cells were divided into 96-well plates by 5×10^3 and cultured for 18 to 24 hours. The compounds of Examples were diluted to final concentrations of 0.1 and 1.0 μM, treated in each well, and incubated for 20 minutes. RSL3 was treated to have final concentrations of 1.0 μM, respectively, and cultured for 24 hours. In order to identify the protective effect of each compound, the degree of LDH extracellular secretion was measured using cytotoxicity LDH assay kit [Dojindo; CK12]. Briefly, at the time when the treatment of the cells with RSL3 for 24 hours is completed, the supernatants containing the cells are taken by 70 μL and transferred to a new 96-well plate. The assay buffer included in the kit is added in an amount of 70 μL/well (the same amount as the sample) thereto, and then the plate is wrapped with a foil and the reaction is performed at room temperature for 15 minutes.

Where [1] appears, read: PC-12, Erastin 1 μM, compound 0.1 μM.
[2] abbreviates: PC-12, Erastin 1 μM, compound 1.0 μM.
Setting [3] is: PC-12, Glutamate 10 mM, compound 0.01 μM.
Where [4] appears, read: PC-12, Glutamate 10 mM, compound 0.1 μM.
The mark [5] stands for this setting: PC-12, RSL3 0.3 μM, compound 0.3 μM.
The mark [6] stands for this setting: PC-12, RSL3 0.3 μM, compound 3.0 μM.
The mark [7] stands for this setting: Glutamate 75 mM, compound 0.1 μM.
Where [8] appears, read: Glutamate 75 mM, compound 1.0 μM.
[9] abbreviates: ARPE-19, Erastin 10 μM, compound 0.03 μM.
Setting [10] is: ARPE-19, Erastin 10 μM, compound 0.3 μM.
Where [11] appears, read: ARPE-19, RSL3 0.3 μM, compound 0.03 μM.
Setting [12] is: ARPE-19, RSL3 0.3 μM, compound 0.3 μM.

SMILES strings stand for the structures.

The term EC50 denotes the concentration needed to bring the measured effect to its halfway point.

With `COCCOCCOCc1cc(NC2CCCC2)c2[nH]c(-c3ccccc3)cc2c1` [Example 39, N-cyclopentyl-5-[2-(2-methoxyethoxy)ethoxymethyl]-2-phenyl-1H-indol-7-amine], the EC50 with H9C2 cells is no more than 0.3 µM. For the same compound, the “inhibition (%)” value turned out to be 100% with PC-12 cells (setting [1]); 100% in the test with PC-12 cells (setting [2]); 52% in the test with PC-12 cells (setting [3]); 97% in the test on PC-12 cells (setting [4]); 100% in the test on PC-12 cells (setting [5]); 100% in the test with PC-12 cells (setting [6]). The “inhibition (%)” value in the test with NRK-49F cells (Erastin 3 μM, compound 0.1 μM) is 99%; with NRK-49F cells (Erastin 3 μM, compound 1.0 μM) it was 98%; in the test with NRK-49F cells (setting [7]) it was 100%; with NRK-49F cells (setting [8]), 100%; with NRK-49F cells (RSL3 3 μM, compound 0.1 μM), 98%; in the test on NRK-49F cells (RSL3 3 μM, compound 1.0 μM), 99%. The “inhibition (%)” value in the test on ARPE-19 cells (setting [9]) turned out to be 100%; with ARPE-19 cells (setting [10]) it was 100%; in the test on ARPE-19 cells (setting [11]), 100%; with ARPE-19 cells (setting [12]), 100%; with MLE-12 cells (compound 0.1 μM) it was 89%; with MLE-12 cells (compound 1.0 μM), 89%.

`COCCOCc1cc(NCc2ccncc2)c2[nH]c(-c3ccccc3)cc2c1` [Example 45, 5-(2-methoxyethoxymethyl)-2-phenyl-N-(4-pyridylmethyl)-1H-indol-7-amine]: the EC50 in the test on H9C2 cells is no more than 0.3 µM. In addition, the “inhibition (%)” value came out at 100% in the test on PC-12 cells (setting [1]); 100% in the test with PC-12 cells (setting [2]); 57% with PC-12 cells (setting [3]); 100% with PC-12 cells (setting [4]); 100% with PC-12 cells (setting [5]); 100% in the test with PC-12 cells (setting [6]). Also, the “inhibition (%)” value in the test with NRK-49F cells (Erastin 3 μM, compound 0.1 μM) is recorded as 99%; in the test with NRK-49F cells (Erastin 3 μM, compound 1.0 μM), 98%; with NRK-49F cells (setting [7]) it was 100%; in the test on NRK-49F cells (setting [8]), 98%; with NRK-49F cells (RSL3 3 μM, compound 0.1 μM) it was 99%; with NRK-49F cells (RSL3 3 μM, compound 1.0 μM) it was 98%. Also, the “inhibition (%)” value stood at 100% in the test with ARPE-19 cells (setting [9]); 100% with ARPE-19 cells (setting [10]); 100% in the test on ARPE-19 cells (setting [11]); 100% with ARPE-19 cells (setting [12]); 98% in the test with MLE-12 cells (compound 0.1 μM); 100% in the test on MLE-12 cells (compound 1.0 μM).

For `COCCOCc1cc(NC2CCOCC2)c2[nH]cc(C)c2c1` [Example 50, 5-(2-methoxyethoxymethyl)-3-methyl-N-tetrahydropyran-4-yl-1H-indol-7-amine], the EC50 in the test with H9C2 cells was greater than 1 µM. For the same compound, the “inhibition (%)” value with PC-12 cells (setting [1]) was found to be 41%; in the test on PC-12 cells (setting [2]) it was 68%; in the test with PC-12 cells (setting [3]), 16%; in the test with PC-12 cells (setting [4]), 25%; in the test with PC-12 cells (setting [5]), 0%; with PC-12 cells (setting [6]), 100%. For the same compound, the “inhibition (%)” value in the test on NRK-49F cells (Erastin 3 μM, compound 0.1 μM) was 3%; with NRK-49F cells (Erastin 3 μM, compound 1.0 μM) it was 99%; in the test with NRK-49F cells (setting [7]), 4%; with NRK-49F cells (setting [8]), 73%; with NRK-49F cells (RSL3 3 μM, compound 0.1 μM) it was 16%; with NRK-49F cells (RSL3 3 μM, compound 1.0 μM), 18%. Moreover, the “inhibition (%)” value in the test on ARPE-19 cells (setting [9]) is given as 19%; in the test with ARPE-19 cells (setting [10]), 86%; with ARPE-19 cells (setting [11]), 4%; in the test on ARPE-19 cells (setting [12]), 45%; in the test with MLE-12 cells (compound 0.1 μM), 0%; in the test on MLE-12 cells (compound 1.0 μM), 56%.

With `COCCOCc1cc(NC2CCNCC2)c2[nH]c(-c3ccccc3)cc2c1` [Example 64, 5-((2-methoxyethoxy)methyl)-2-phenyl-N-(piperidin-4-yl)-1H-indol-7-amine], the 50% effective concentration (EC50) with H9C2 cells is no more than 0.3 µM. The “inhibition (%)” value in the test on PC-12 cells (setting [1]) was found to be 100%; in the test on PC-12 cells (setting [2]) it was 100%; with PC-12 cells (setting [3]), 39%; in the test with PC-12 cells (setting [4]), 97%; in the test with PC-12 cells (setting [5]) it was 78%; in the test with PC-12 cells (setting [6]) it was 100%. Further, the “inhibition (%)” value in the test with NRK-49F cells (Erastin 3 μM, compound 0.1 μM) amounted to 100%; in the test on NRK-49F cells (Erastin 3 μM, compound 1.0 μM), 100%; with NRK-49F cells (setting [7]) it was 7%; in the test on NRK-49F cells (setting [8]), 99%; in the test on NRK-49F cells (RSL3 3 μM, compound 0.1 μM) it was 70%; in the test with NRK-49F cells (RSL3 3 μM, compound 1.0 μM), 100%. Further, the “inhibition (%)” value in the test on ARPE-19 cells (setting [9]) is 100%; in the test on ARPE-19 cells (setting [10]) it was 100%; with ARPE-19 cells (setting [11]), 67%; in the test with ARPE-19 cells (setting [12]), 100%; with MLE-12 cells (compound 0.1 μM), 100%; in the test on MLE-12 cells (compound 1.0 μM) it was 98%.
